Source: patent publication US11034666B2, “Anti-inflammatory and antitumor 2-oxothiazoles and 2-oxothiophenes compounds” (Avexxin AS, priority 2013, dated 2021)
Like-named read-outs stand apart in the source and are kept apart here.

Assays:
[1] = tested on: OA release in SW982 cells; test: Ex vivo cellular oleic acid (OA) release assay, IL-1β stimulated; format: cell-based; details: Homo sapiens; SW982 synoviocytes; 4 h IL-1β stimulation; % inhibition at 10 pM oxothiazole (so in the source); read-out: OA release % Inhib
Protocol: (§1) The effect of the oxothiazoles synthesized on the release of AA and OA in synoviocytes was evaluated as previously described.^54 The percent inhibition of AA and OA was determined at a 10 μM inhibitor concentration, while for the determination of the IC50 value the inhibitors were tested in a 0-20 μM range after IL-1β stimulation for 4 h.
(§2) The human synovial sarcoma cell line SW982 was from ATCC (UK) and was used as a model system to monitor AA/OA release and activation of GIVA cPLA2. SW982 cells were passaged bi-weekly by routine trypsin detachment and kept in a sub-confluent state. The cells were maintained in Dulbecco's Modified Eagle Medium (DMEM) supplemented with 10% FBS, 0.1 mg/mL gentamicin and 0.3 mg/mL L-glutamine at 37° C. with 10% CO2. For AA release, 5*10^5 cells were seeded pr well in a 48-well per plate format. Experiments were performed at 3 days post-confluency following overnight serum deprivation in serum-free DMEM to ensure differentiation and synchronization of the cells.
(§3) AA and OA release was analyzed as previously described.^54 At 2 days post-confluency, SW982 cells were serum-starved and labelled overnight with ^3H-AA (0.4 μCi/ml) and ^14C-OA (0.067 μCi/ml) in serum-free DMEM. Prior to the addition of oxothiazoles, the cells were washed twice with PBS containing fBSA (2 mg/ml) and PBS in order to remove unincorporated radioactivity. Cells were pretreated (1 h) with oxothiazoles prior to IL-1β stimulation (10 ng/mL, 4 h). Following IL-1β stimulation, the supernatants were cleared of detached cells by centrifugation (13000 rpm, 5 min). The release of ^3H-AA and ^14C-OA from the cells was assessed by liquid scintillation counting (LS 6500 Multi-Purpose Scintillation Counter, Beckman Coulter, Inc (USA). Adherent cells were dissolved in 1N NaOH in order to determine incorporated ^3H-AA and ^14C-OA in the cells by liquid scintillation counting. In all experiments, DMSO was included for vehicle control ([…]0.05%).
(§4) Following treatments, cells were routinely observed by microscopy to ensure unaltered cell morphology, integrity and viability. The results are given as inhibition of released ^3H-AA and ^14C-OA in the supernatants relative to total ^3H-AA and ^14C-OA incorporated into the cells, from at least three independent experiments performed in triplicates.

[2] = tested on: AA release in SW982 cells; test: Ex vivo cellular arachidonic acid (AA) release assay, IL-1β stimulated; format: cell-based, human; details: for inhibition / IC50: Homo sapiens; for inhibition: % inhibition at 10 pM oxothiazole (so in the source), read-out: AA release % Inhib
Protocol: as §1, §2, §3, §4

PGE2 = test: PGE2-assay (Tables 2 and 4); format: cell-based; details: Table 2; head says % inhibition, cells print μM
Description: Experimental procedures suitable for the formation and testing of these compounds can be found in WO2011/039365 as well as references cited therein.

[3] = tested on: collagen-induced arthritis (CIA) mouse model; test: Therapeutic collagen-induced arthritis (CIA) study; format: in vivo, male DBA/1 mice; details: Days 36 to 41; Compound A 30 mg/kg ip daily; Enbrel 25 mg/kg twice a week
Description: The therapeutic effect of Compound A on CIA model in male DBA/1 mice following ip administration, treatment starting 7 days after the last immunization was explored. CIA developed rapidly in mice immunized with CII, with maximum AI of 10.2 observed at 39 days post immunization. The AI and incidence of vehicle- and Compound A treated groups increased in a time-dependent mode from Days 29 to 41. […] Compound A and Enbrel performed equally well; there were no significant difference between these treatments groups.
Separate prophylactic and therapeutic efficacy studies of COMPOUND A were performed. […] Body weights were measured and recorded prior to randomization and then once daily during the study. Food consumption was measured and recorded daily. […] Necropsy examinations were performed at study termination; plasma samples were collected, organ weights were recorded […]
CIA Assessment and Treatment. CIA was assessed in mice by two blinded observers to measure paw swelling with a capacity measurement method on Day 0, Day 20, Day 22, Day 25, Day 27, Day 29, Day 32, Day 34, Day 36, Day 39 and Day 41 after the first injection. […] However, the values measured were not included in the mean value calculations of the main groups. […]

[4] = SW982 synoviocytes, 4 h IL-1β stimulation
[5] = SW982 synoviocytes, tested in 0-20 μM range, 4 h IL-1β stimulation, read-out: AA release IC50
[6] = SW982 cells, tested 0-20 μM, Tables 2 and 4, read-out: AA release SW982 cells (0-20 μM) IC50

Compound: CCCCCCCCCCCCOCC(=O)c1nc(CC(=O)OCC)cs1 [Compound X, Ethyl 2-(2-(2-(dodecyloxy)acetyl)thiazol-4-yl)acetate]
- inhibition at 10 µM [1]: 0%
- inhibition [2, 4]: 0%
- inhibition of the AA release (in words) ([2]; SW982 synoviocytes): interesting inhibition

Compound: CCCCCCCCCCCCOCC(=O)c1nc(C(=O)OCC)cs1 [Compound W, Ethyl 2-(2-(dodecyloxy)acetyl)thiazole-4-carboxylate]
- inhibition at 10 µM [1]: 0%
- inhibition [2, 4]: 9%
- IC50 [2, 5]: > 20 µM
- inhibition of the AA release (in words) ([2]; SW982 synoviocytes): interesting inhibition

Compound: CCCCCCCCc1ccc(OCC(=O)c2nc(CC(=O)OCC)cs2)cc1 [Compound Y, Ethyl 2-(2-(2-(4-octylphenoxy)acetyl)thiazol-4-yl)acetate]
- inhibition at 10 µM [1]: 20%
- inhibition [2, 4]: 71%
- IC50 [2, 5]: 5 µM

Compound: O=C(COc1ccc(-c2ccccc2)cc1)c1nccs1 [Compound B, 2-(Biphenyl-4-yloxy)-1-(thiazol-2-yl)ethanone]
- melting point: 130 to 133 °C
- inhibition at 10 µM [1]: 25%
- IC50 (PGE2): ~6 µM
- IC50 [2, 6]: ~2.5 µM
- inhibition [2, 4]: 73%
- IC50 [2, 5]: 2.8 µM
- inhibition of the AA release (in words) ([2]; SW982 synoviocytes): interesting inhibition

Compound: CCCCCCCCc1ccc(OCC(=O)c2nc(C(=O)OC)cs2)cc1 [Compound A, Methyl 2-(2-(4-octylphenoxy)acetyl)thiazole-4-carboxylate]
- inhibition at 10 µM [1]: 40%
- arthritic index (AI) in comparison to the CIA control group (in words) [3]: significantly decreased
- IC50 (PGE2): ~0.75 µM
- IC50 [2, 6]: ~0.6 µM
- inhibition [2, 4]: > 90%
- IC50 [2, 5]: 0.6 µM

Compound: O=C(COc1ccccc1)c1nccs1 [Compound D, 2-Phenoxy-1-(thiazol-2-yl)ethanone]
- melting point: 77 to 79 °C
- inhibition at 10 µM [1]: 20%
- IC50 [2, 6]: > 20 µM
- inhibition [2, 4]: 12%
- IC50 [2, 5]: > 20 µM

Compound: O=C(COc1ccc(F)cc1)c1nccs1 [Compound C, 2-(4-Fluorophenoxy)-1-(thiazol-2-yl)ethanone]
- melting point: 74 to 77 °C
- inhibition at 10 µM [1]: 25%
- IC50 [2, 6]: > 20 µM
- inhibition [2, 4]: 0%

Compound: CCCCCCCCc1ccc(OCC(=O)c2nccs2)cc1 [Compound T, 2-(4-Octylphenoxy)-1-(thiazol-2-yl)ethanone]
- inhibition at 10 µM [1]: 0%
- inhibition [2, 4]: > 90%
- IC50 [2, 5]: 3.6 µM
- inhibition of the AA release (in words) ([2]; SW982 synoviocytes): interesting inhibition
